Measured values published in US8871205B2, “Methods and compositions for the treatment of immune disorders” (The University of North Carolina at Chapel Hill, priority 2009, dated 2014).
“Also recorded” adds a separate entry of the source.

Legend:
peritoneal macrophages = test: TLR agonist-induced cytokine production (ELISA) in peritoneal macrophages pretreated with Rac1 inhibitor; type: cell-based, mouse
Experimental: Immunoblot analysis of NF-κB and mitogen-activated protein kinase (MAPK) signaling molecules was performed with WT and Plxna4^−/− peritoneal macrophages left untreated (0) or treated for 15, 30 or 60 min with 1 μg/ml ultrapure LPS (FIG. 3A). FIG. 3B and FIG. 3C show chromatin immunoprecipitation (ChIP) assays of the binding of p65 or c-Jun at the promoter regions of Tnfa and Il6 gene in WT and Plxna4^−/− peritoneal macrophages left untreated or treated with 10 μg/ml poly(I:C), 1 μg/ml ultrapure LPS (B), 5 μg/ml Pam3Cys or 4 μg/ml CpG (C) for 1 h. Cells were left untreated (0) or treated for 15 or 30 min with 1 μg/ml ultrapure LPS. Rac1, Cdc42 and RhoA pull-down analysis were performed as described in the Examples section. Total Rac1, Cdc42 and RhoA in cell lysate were used as controls. […] Protein levels of TNF-α and IL-6 were measured by ELISA. The results shown are representative of three independent experiments and are expressed as mean±s.d. * P<0.05 compared to WT peritoneal macrophages without NSC23766 pretreatment.
Total peritoneal cells were harvested from the peritoneal cavities of naïve WT or Plxna4^−/− mice with two 10 ml cold sterile PBS wash. […] The remaining cells were thoroughly washed with PBS and counted in a hemocytometer. Cytospins were prepared and stained with Diff-Quik solutions, and the number of peritoneal macrophages was determined. […]
(§1) Cytokines generated by in vitro cultured peritoneal macrophages were quantified using the ELISA Set for mouse TNF-α or IL-6 (BD Biosciences) and mouse IFN-β ELISA Kit (PBL InterferonSource). For the in vivo experiments, concentrations of TNF-α, IL-1β, IL-6, IL-12p70, CCL2 and CCL3 were measured in cell-free peritoneal lavage fluid, serum, and lung homogenate using a Customized Mouse Cytokine 6-plex Panel (BioLegend) and a Luminex Bio-Plex 200 system (Bio-Rad Laboratories). […]

WT and Plxna4−/− mice [1] = test: Survival after experimental sepsis induced by CLP; type: in vivo; settings: 25 μg/kg 1 h prior to CLP
Experimental: (§2) WT and Plxna4^−/− peritoneal macrophages were stimulated with LPS (1 μg/ml) for 4 h in the absence or presence of either Sema3A-Fc or Sema6A-Fc fusion proteins (20 or 100 μg/ml) (FIG. 7A and FIG. 7B). Messenger RNA (FIG. 7A) or protein (FIG. 7B) levels of TNF-α and IL-6 were measured by RT-PCR and ELISA, respectively. The IgG Fc fragment (100 μg/ml) was used as a negative control. WT and Plxna4^−/− mice (n=7˜9 per group) were pretreated with either Sema3A-Fc or IgG Fc control proteins at a dosage of 25 μg per kg body weight 1 h prior to CLP procedure (FIG. 7C). Survival rate was monitored for 5 days. τP<0.05 compared with WT mice pretreated with Sema3A-Fc. […] Inflammatory cytokines in peritoneal lavage collected 4 h after CLP were determined by ELISA. * P<0.05 compared to peritoneal lavage from WT mice pretreated with Sema3A-Fc (FIG. 7E). […] Inflammatory cytokines in peritoneal lavage collected 4 h after CLP were determined by ELISA. *P<0.05 compared with peritoneal lavage from WT mice pretreated with Sema3A-Fc (FIG. 7G).
CLP surgery was performed on mice as previously described with minor modifications (Wen et al., 2008). […] For survival studies, mice subjected to surgery were monitored for 5 days. […] Colonies were counted and expressed as CFU/ml. […]
We next assessed if Sema3A engagement of plexin-A4 could synergistically exacerbate CLP-induced septic inflammation. […]

WT and Plxna4−/− mice [2] = test: Inflammatory cytokines in peritoneal lavage after CLP (ELISA); type: in vivo; settings: 25 μg/kg 1 h prior to CLP, 4 h after CLP, versus IgG Fc-treated controls
Experimental: as §2
Cytokines generated by in vitro cultured peritoneal macrophages were quantified using the ELISA Set for mouse TNF-α or IL-6 (BD Biosciences) and mouse IFN-β ELISA Kit (PBL InterferonSource). […]
CLP surgery was performed on mice as previously described with minor modifications (Wen et al., 2008). […] For survival studies, mice subjected to surgery were monitored for 5 days. […]

[3] = test system: WT or Plxna4−/− peritoneal macrophages; test: TNF-α and IL-6 production (RT-PCR, ELISA) in peritoneal macrophages stimulated with Sema3A-Fc or Sema6A-Fc in the absence or presence of LPS; type: cell-based, mouse
Experimental: Messenger RNA (FIG. 7A) or protein (FIG. 7B) levels of TNF-α and IL-6 were measured by RT-PCR and ELISA, respectively. The IgG Fc fragment (100 μg/ml) was used as a negative control. WT and Plxna4^−/− mice (n=7˜9 per group) were pretreated with either Sema3A-Fc or IgG Fc control proteins at a dosage of 25 μg per kg body weight 1 h prior to CLP procedure (FIG. 7C). Survival rate was monitored for 5 days. τP<0.05 compared with WT mice pretreated with Sema3A-Fc. WT mice (n=4 per group) were pretreated with either Sema3A-Fc or IgG Fc control proteins, followed by CLP surgery (FIG. 7D). Inflammatory cytokines in peritoneal lavage collected 4 h after CLP were determined by ELISA. * P<0.05 compared to peritoneal lavage from WT mice pretreated with Sema3A-Fc (FIG. 7E). […] WT and Plxna4^−/− mice (n=4 per group experiment) were pretreated with either Sema3A-Fc or IgG Fc control proteins at a dosage of 25 ug/kg body weight 1 hour before CLP procedure. Inflammatory cytokines in peritoneal lavage collected 4 h after CLP were determined by ELISA. *P<0.05 compared with peritoneal lavage from WT mice pretreated with Sema3A-Fc (FIG. 7G).
Total peritoneal cells were harvested from the peritoneal cavities of naïve WT or Plxna4^−/− mice with two 10 ml cold sterile PBS wash. Lavage was pooled for mice in the same group. RBCs were lysed in ammonium chloride buffer (150 mM NH4CL, 10 mM NaHCO3, 1 mM EDTA-tetrasodium). The remaining cells were thoroughly washed with PBS and counted in a hemocytometer. Cytospins were prepared and stained with Diff-Quik solutions, and the number of peritoneal macrophages was determined. […]
as §1

Rac1 = molecular target: T1, Rac1 (Mus musculus, UniProt P63001); test: Detection of GTP-bound Rac1 (pull-down) in macrophages; type: cell-based
T1 construct: endogenous in cells; host or cells: primary mouse peritoneal macrophages (WT, Plxna4-/-)
Experimental: The assays for GTP-bound Rac1, Cdc42 and RhoA were performed as described (Noren et al., 2000). Briefly, peritoneal macrophages were stimulated with 1 μg/ml LPS for various time periods. Cells were lysed and GTP-bound Rac1 and Cdc42 were affinity precipitated using Rac1/Cdc42-binding domain of PAK (PBD) fused with GST. GTP-bound RhoA was affinity precipitated using RhoA-binding domain of rhotekin (RBD) fused with GST. Bound proteins were resolved on a NuPAGE® (SDS PAGE) gel and were transferred onto nitrocellulose membranes. Membranes were immunoblotted with the appropriate primary antibodies against Rac1, Cdc42 or RhoA.
To assess a converging point for TLR and plexin-A4, we assayed for GTP-bound Rac1.

| Compound | cytokine production (peritoneal macrophages; TLR-activated Plxna4−/− macrophages, NSC23766 pretreatment) | IFN-β production (peritoneal macrophages; WT macrophages, Rac1 inhibition) | TNF-α and IL-6 production (peritoneal macrophages; WT peritoneal macrophages, NSC23766 200 μM pretreatment 1 h, various TLR agonists 4 h, ELISA) | survival rate (WT and Plxna4−/− mice [1]) | levels of inflammatory cytokines in peritoneal lavage (WT and Plxna4−/− mice [2]) | LPS-induced TNF-α and IL-6 production (enhancement in LPS-responsiveness) ([3]; Plxna4−/− macrophages) | LPS-induced TNF-α and IL-6 production ([3]; WT peritoneal macrophages, suboptimal LPS, fusion proteins 20 or 100 μg/ml) | TNF-α and IL-6 production ([3]; semaphorin alone, absence of LPS, macrophages) | Rac1 activation (GTP-bound Rac1) (Rac1; Myd88−/− macrophages) | Rac1 activation (GTP-bound Rac1) (Rac1; Plxna4−/− macrophages) | Rac1 activation (GTP-bound Rac1) (Rac1; WT macrophages, LPS and Sema3A together) | Rac1 activation (GTP-bound Rac1) (Rac1; WT macrophages, single stimulus) |
| --- | --- | --- | --- | --- | --- | --- | --- | --- | --- | --- | --- | --- |
| CCN(CC)CCCC(C)Nc1nc(C)cc(Nc2ccc3nc(C)cc(N)c3c2)n1 (stereo not drawn) [NSC23766] | no inhibitory effect | not affected | significantly attenuate | – | – | – | – | – | – | – | – | – |
| Sema3A: Recombinant human Sema3A-Fc (1250-S3, R&D); chimeric protein of human IgG1 Fc fragment fused to Sema3A; plexin-A4 ligand | – | – | – | did not affect | significantly higher levels | completely abolished | enhanced | Neither Sema3A nor Sema6A alone induced; also recorded: failed to induce cytokine production | neither Sema3A nor LPS activated; also recorded: attenuated | not observed | enhanced this activation | resulted in Rac1 activation |
